Test results as given in publication PMC6102592, “Synthesis of New Benzothiazole Acylhydrazones as Anticancer Agents” (Molecules : A Journal of Synthetic Chemistry and Natural …, 2018).

Tests used:
[1] = test system: A549 (Human lung adenocarcinoma epithelial cell line); assay: MTT cytotoxicity test, A549; assay type: cell-based
Method: (§1) MTT assay, depending on the capability of metabolically active cells that change the pale yellow MTT colour to a spectrophotometrically measured blue formazan salt, is one of the most favoured cytotoxicity tests. We assessed the antitumor potential of new benzothiazole-acylhydrazones on A549, C6, MCF-7, and HT-29 cell lines with various concentrations (1 mM, 0.316 mM, 0.1 mM, 0.0316 mM, 0.01 mM, 0.00316 mM, 0.001 mM, 0.000316 mM). In addition, the cytotoxic activities of compounds 4a–4j were evaluated against healthy NIH3T3 cells, owing to show the selectivity towards carcinogenic cells. The IC50 values of the compounds against cell lines are represented in Table 1.
(§2) Metabolic activity of viable cells was measured by MTT assay based on the reduction of 3-(4,5-dimethylthiazol-2-yl)-2,5-diphenyltetrazolium salt to a formazan product, which can be quantified spectrophotometrically to determine the percent of viable cells.
(§3) Anticancer activities of new benzothiazole acylhydrazones derivatives were evaluated against A549 C6, MCF-7 and HT-29 cell lines. The selectivity of their cytotoxic effects was evaluated on NIH/3T3 mouse embryonic fibroblast cells. NIH/3T3 cells were incubated in DMEM supplemented with fetal calf serum, penicillin (100 IU/mL), streptomycin ([…]) and 7.5% NaHCO3 at 37 °C in a humidified atmosphere of 95% air and 5% CO2. Carcinogenic cells were incubated in RPMI medium supplemented with fetal calf serum, penicillin (100 IU/mL), streptomycin ([…]) and 7.5% NaHCO3 at 37 °C in a humidified atmosphere of 95% air and 5% CO2. All cell lines were seeded at a density of 1 × 10^4 cells into the 96-well plates. After 24 h of incubating period, the culture mediums were removed and test compounds were added at concentrations of 0.000316–1 mM. After a 24 h incubation period, OD of samples were measured by a microplate reader (Biotek, Winooski, VT, USA) at 540 nm. Inhibition % at concentrations was determined using the formula below and IC50 values were calculated by nonlinear regression analysis using the SigmaPlot v.10 package program (Manufacturer, City, US State abbrev. if applicable, Country).

[2] = test system: C6 (Rat brain glioma cell line); assay: MTT cytotoxicity test, C6; assay type: cell-based; conditions: 24 h incubation
Method: as §1, §2, §3

[3] = test system: MCF-7 (Human breast adenocarcinoma cell line); assay: MTT cytotoxicity test, MCF-7; assay type: cell-based
Method: as §1, §2, §3

[4] = test system: HT-29 (Human colorectal adenocarcinoma cell line); assay: MTT cytotoxicity test, HT-29; assay type: cell-based
Method: as §1, §2, §3

[5] = test system: NIH3T3 (Mouse embryo fibroblast cell line); assay: MTT cytotoxicity test, healthy NIH3T3 cells; assay type: cell-based; conditions: for IC50: MTT, 24 h incubation, healthy cells
Method: as §1, §2, §3

[6] = test system: C6 cell line; assay: Flow cytometric analysis (Annexin V-FITC/PI); assay type: cell-based, Rat; conditions: for Q1 percentage of necrotic cells / Q2 percentage of late apoptotic cells / Q4 percentage of early apoptotic cells / Q3 percentage of viable cells / viability at 15 µM: 24 h; for percentages of apoptotic cells: C6, at IC50 concentrations, 24 h (sum of Q2 and Q4); for viability at 15 µM: Rattus norvegicus, read-out: Q3 percentage of viable cells
Text: In the therapy of cancer, apoptosis, or programmed cell death, is one of the distinguished mechanisms of cytotoxic agents. It is an important approach to express the cell death pathway and most of the anticancer drugs induce apoptosis in tumor cells. Annexin V-FITC is a reagent that can detect and measure quantitate of apoptotic cells by flow cytometry. Staining cells with PI and Annexin V-FITC show the differences between live, apoptotic, dead, and late apoptotic or necrotic cells. Thus, this method provides evidence on the pathway of cell death.
Death pathway of the carcinogenic cell lines was detected by Annexin V-FITC Apoptosis Detection Kit (BD, Pharmingen, City, US State abbrev. if applicable, Country) as reported in the manufacturer’s instructions. […] After 24 h incubation period, cells were harvested by centrifugation at 1200 rpm for 5 min. at room temperature, rinsed with cold water twice and then suspended at 1 × 10^6 cells/mL concentration in Annexin V-FITC binding buffer. Propidium iodide ([…]) and annexin V-FITC ([…]) were added for staining the cells and the fluorescence measurements was performed using a flow cytometer. FCSExpress software (version, Manufacturer, City, US State abbrev. if applicable, Country) was used to display the percent of normal and apoptotic cells at different stages. […] The experiments were carried out in triplicate.

[7] = test system: DNA synthesis of C6 cells; assay: DNA synthesis inhibition assay (BrdU cell proliferation); assay type: cell-based, Rat; conditions: C6, IC50/4 to 4 × IC50, 24 h
Method: This immunostaining assay is related to detecting the attendance of BrdU into nuclear DNA instead of thymidine during S-phase of the cell cycle using specific anti-BrdU antibodies. Thus, this study was performed to evaluate inhibitory effects of compounds 4d, 4e, and 4h on proliferation of C6 cell lines. […] Figure 2 represents the DNA synthesis inhibitory effect of compounds 4d, 4e, and 4h on C6 cells.
The BrdU cell proliferation method was performed to analyse the effects of compounds 4d, 4e and 4h on proliferation of C6 cells. C6 cells were seeded into the 96-well plates at a density of 1 × 10^4 cells. […] At the end of the incubation period, BrdU solution was added and cells were reincubated for 2 h at 37 °C. Anti-BrdU-POD ([…]) was added and the mixture was incubated for 90 min. Microplates were washed with PBS for three times. After adding substrate solution, the mixture was incubated for 15 min. OD of the wells were determined at 492 nm.

[8] = Homo sapiens, A549, 24 h incubation
[9] = Homo sapiens, MCF7, 24 h incubation
[10] = Homo sapiens, HT-29, 24 h incubation

SMILES | melting point [°C] | Q1 percentage of necrotic cells ([6]; C6, IC50 (0.03 mM)) [%] | Q2 percentage of late apoptotic cells ([6]; C6, IC50 (0.03 mM)) [%] | Q4 percentage of early apoptotic cells ([6]; C6, IC50 (0.03 mM)) [%] | percentages of apoptotic cells [6] [%] | IC50 [1, 8] [µM] | IC50 ([2]; Rattus norvegicus, Glioma cell) [µM] | IC50 [3, 9] [µM] | IC50 [4, 10] [µM] | IC50 ([5]; Mus musculus, NIH3T3) [µM] | further results
N.N.[Cl][Pt][Cl] [Cisplatin, reference compound] |  | 3.5 | 18.3 | 2.6 | 20.9 |  |  |  |  |  | IC50 ([1]; 24 h incubation): 60 µM; IC50 [2]: 30 µM; IC50 ([3]; 24 h incubation): 50 µM; IC50 ([4]; 24 h incubation): 60 µM; IC50 [5]: > 1000 µM
O=C(CSc1nc2cc(Cl)ccc2s1)NN=Cc1ccc(N2CCCCC2)cc1 [Compound 4a, 2-((5-Chlorobenzothiazol-2-yl)thio)-N’-(4-(piperidin-1-yl)benzylidene)acetohydrazide] | 178 to 179 |  |  |  |  | > 1000 | 100 | 490 | 520 | 100 | 
CC1CCN(c2ccc(C=NNC(=O)CSc3nc4cc(Cl)ccc4s3)cc2)CC1 [Compound 4d, 2-((5-Chlorobenzothiazol-2-yl)thio)-N’-(4-(4-methylpiperidin-1-yl)benzylidene)acetohydrazide] |  | 6.9 | 3.1 | 2.4 | 5.5 | > 1000 | 30 | 100 | 300 | > 1000 | DNA synthesis inhibitory activity compared with cisplatin [7]: higher inhibition potency than cisplatin at all concentrations; Q1 percentage of necrotic cells ([6]; C6, 2 × IC50 (0.06 mM)): 4.5%; Q2 percentage of late apoptotic cells ([6]; C6, 2 × IC50 (0.06 mM)): 7.1%; Q3 percentage of viable cells ([6]; C6, 2 × IC50 (0.06 mM)): 74.5%; Q4 percentage of early apoptotic cells ([6]; C6, 2 × IC50 (0.06 mM)): 13.9%; Q3 percentage of viable cells ([6]; C6, IC50 (0.03 mM)): 87.6%; Q1 percentage of necrotic cells ([6]; C6, IC50/2 (0.015 mM)): 16.4%; Q2 percentage of late apoptotic cells ([6]; C6, IC50/2 (0.015 mM)): 12.3%; Q4 percentage of early apoptotic cells ([6]; C6, IC50/2 (0.015 mM)): 0.1%; viability at 15 µM ([6]; C6, IC50/2 (0.015 mM)): 71.2%
COc1ccc(N2CCN(c3ccc(C=NNC(=O)CSc4nc5cc(Cl)ccc5s4)cc3)CC2)cc1 [Compound 4e, 2-((5-Chlorobenzothiazol-2-yl)thio)-N’-(4-(4-(4-methoxyphenyl)piperazin-1-yl)benzylidene)acetohydrazide] |  | 9.8 | 16.0 | 3.5 | 19.5 | 30 | 30 | 300 | > 1000 | 10 | selectivity index (SI) ([5]; NIH3T3 versus cancer cells): 0.33; DNA synthesis inhibitory activity compared with cisplatin [7]: higher antiproliferative effect than cisplatin at the concentrations of IC50/2, IC50, 2 × IC50, and 4 × IC50; Q1 percentage of necrotic cells ([6]; C6, 2 × IC50 (0.06 mM)): 10.1%; Q2 percentage of late apoptotic cells ([6]; C6, 2 × IC50 (0.06 mM)): 14.0%; Q3 percentage of viable cells ([6]; C6, 2 × IC50 (0.06 mM)): 73.3%; Q4 percentage of early apoptotic cells ([6]; C6, 2 × IC50 (0.06 mM)): 2.5%; Q3 percentage of viable cells ([6]; C6, IC50 (0.03 mM)): 70.7%; Q1 percentage of necrotic cells ([6]; C6, IC50/2 (0.015 mM)): 13.5%; Q2 percentage of late apoptotic cells ([6]; C6, IC50/2 (0.015 mM)): 3.8%; Q4 percentage of early apoptotic cells ([6]; C6, IC50/2 (0.015 mM)): 0%; viability at 15 µM ([6]; C6, IC50/2 (0.015 mM)): 82.6%
COc1ccc2sc(SCC(=O)NN=Cc3ccc(N4CCCC(C)C4)cc3)nc2c1 (stereo not shown) [Compound 4h, 2-((5-Methoxybenzo[d]thiazol-2-yl)thio)-N’-(4-(3-methylpiperidin-1-yl)benzylidene)acetohydrazide] |  | 8.6 | 7.4 | 4.6 | 12.0 | > 1000 | 30 | > 1000 | > 1000 | 100 | DNA synthesis inhibitory activity compared with cisplatin [7]: could not display the same ability as compounds 4d and 4e to inhibit DNA synthesis; Q1 percentage of necrotic cells ([6]; C6, 2 × IC50 (0.06 mM)): 5.4%; Q2 percentage of late apoptotic cells ([6]; C6, 2 × IC50 (0.06 mM)): 10.5%; Q3 percentage of viable cells ([6]; C6, 2 × IC50 (0.06 mM)): 75.2%; Q4 percentage of early apoptotic cells ([6]; C6, 2 × IC50 (0.06 mM)): 8.9%; Q3 percentage of viable cells ([6]; C6, IC50 (0.03 mM)): 79.4%; Q1 percentage of necrotic cells ([6]; C6, IC50/2 (0.015 mM)): 10.8%; Q2 percentage of late apoptotic cells ([6]; C6, IC50/2 (0.015 mM)): 4.9%; Q4 percentage of early apoptotic cells ([6]; C6, IC50/2 (0.015 mM)): 0.3%; viability at 15 µM ([6]; C6, IC50/2 (0.015 mM)): 84.1%

Now from value to molecule, other results behind:

melting point [°C] | SMILES | Q1 percentage of necrotic cells ([6]; C6, IC50 (0.03 mM)) [%] | Q2 percentage of late apoptotic cells ([6]; C6, IC50 (0.03 mM)) [%] | Q4 percentage of early apoptotic cells ([6]; C6, IC50 (0.03 mM)) [%] | percentages of apoptotic cells [6] [%] | IC50 [1, 8] [µM] | IC50 ([2]; Rattus norvegicus, Glioma cell) [µM] | IC50 [3, 9] [µM] | IC50 [4, 10] [µM] | IC50 ([5]; Mus musculus, NIH3T3) [µM] | further results
138 to 139 | CC1CCCCN1c1ccc(C=NNC(=O)CSc2nc3cc(Cl)ccc3s2)cc1 (stereo not shown) [Compound 4b, 2-((5-Chlorobenzothiazol-2-yl)thio)-N’-(4-(2-methylpiperidin-1-yl)benzylidene)acetohydrazide] |  |  |  |  | 1000 | 100 | > 1000 | 1000 | 100 | 
149 to 150 | CC1CCCN(c2ccc(C=NNC(=O)CSc3nc4cc(Cl)ccc4s3)cc2)C1 (stereo not shown) [Compound 4c, 2-((5-Chlorobenzothiazol-2-yl)thio)-N’-(4-(3-methylpiperidin-1-yl)benzylidene)acetohydrazide] |  |  |  |  | 520 | 100 | 100 | 300 | 30 | 
138 to 139 | COc1ccc2sc(SCC(=O)NN=Cc3ccc(N4CCCCC4)cc3)nc2c1 [Compound 4f, 2-((5-Methoxybenzothiazol-2-yl)thio)-N’-(4-(piperidin-1-yl)benzylidene)acetohydrazide] |  |  |  |  | > 1000 | > 1000 | > 1000 | > 1000 | 30 | 
138 to 139 | COc1ccc2sc(SCC(=O)NN=Cc3ccc(N4CCCCC4C)cc3)nc2c1 (stereo not shown) [Compound 4g, 2-((5-Methoxybenzothiazol-2-yl)thio)-N’-(4-(2-methylpiperidin-1-yl)benzylidene)acetohydrazide] |  |  |  |  | > 1000 | > 1000 | > 1000 | > 1000 | 100 | 
149 to 150 | COc1ccc2sc(SCC(=O)NN=Cc3ccc(N4CCC(C)CC4)cc3)nc2c1 [Compound 4i, 2-((5-Methoxybenzo[d]thiazol-2-yl)thio)-N’-(4-(4-methylpiperidin-1-yl)benzylidene)acetohydrazide] |  |  |  |  | 490 | 100 | 300 | 1000 | 30 | 
199 to 200 | COc1ccc(N2CCN(c3ccc(C=NNC(=O)CSc4nc5cc(OC)ccc5s4)cc3)CC2)cc1 [Compound 4j, 2-((5-Methoxybenzo[d]thiazol-2-yl)thio)-N’-(4-(4-(4-methoxyphenyl)piperazin-1-yl)benzylidene)acetohydrazide] |  |  |  |  | > 1000 | > 1000 | > 1000 | > 1000 | > 1000 | 
